The results in this text go back to ChEMBL document CHEMBL1144555, “Chemoenzymatic synthesis and antimicrobial activity evaluation of monoglucosyl diglycerides” (2007).

By MIC is commonly meant the lowest concentration found to suppress growth.

Holding throughout (format): functional
The subject of experiment [1] is Staphylococcus aureus. The experiment can be described thus: Antimicrobial activity against Staphylococcus aureus ATCC 105487.
The next experiment concerns Escherichia coli. In words: Antimicrobial activity against Escherichia coli ATCC 25922.
For experiment [2], the system named is Mycobacterium tuberculosis. In words: Antimicrobial activity against Mycobacterium tuberculosis H160.
For another experiment, the system named is Kluyveromyces marxianus. The experiment can be described thus: Antimicrobial activity against Candida pseudotropicalis.
In another experiment the test system is Candida albicans. The experiment can be described thus: Antimicrobial activity against Candida albicans.
Another experiment concerns Pseudomonas aeruginosa. In words: Antimicrobial activity against Pseudomonas aeruginosa ATCC 27753.
The test system of experiment [3] is Mycobacterium tuberculosis. The experiment can be described thus: Antimicrobial activity against Mycobacterium tuberculosis H190.
Experiment [4] deals with Staphylococcus aureus. In words: Antimicrobial activity against Staphylococcus aureus 52.
Experiment [5] concerns Staphylococcus aureus. In words: Antimicrobial activity against Staphylococcus aureus ATCC 25923.
The test system of the next experiment is Bacillus subtilis. The experiment can be described thus: Antimicrobial activity against Bacillus subtilis ATCC 6633.
Experiment [6] relates to Staphylococcus aureus. The experiment can be described thus: Antimicrobial activity against Staphylococcus aureus 87.
In experiment [7] the test system is Mycobacterium tuberculosis. The experiment can be described thus: Antimicrobial activity against Mycobacterium tuberculosis H37Rv.
Experiment [8] deals with Staphylococcus aureus. The experiment can be described thus: Antimicrobial activity against Staphylococcus aureus 85.
The test system of the next experiment is Enterococcus faecalis. The experiment can be described thus: Antimicrobial activity against Enterococcus faecalis ATCC 29212.

For `CCCCCCCCCC(=O)OCC(CO[C@@H]1O[C@H](CO)[C@@H](O)[C@H](O)[C@H]1O)OC(=O)CCCCCCCCC` (mixture of isomers), the MIC with Staphylococcus aureus [1] was over 128 µg/mL; in the experiment with Escherichia coli, over 128 µg/mL; in [2], 64 µg/mL; in the experiment with Kluyveromyces marxianus, over 128 µg/mL; in the experiment on Candida albicans, over 128 µg/mL; against Pseudomonas aeruginosa, over 128 µg/mL. Moreover, the MIC in experiment [3] is 64 µg/mL; in the experiment on Staphylococcus aureus [4], over 128 µg/mL; against Staphylococcus aureus [5], over 128 µg/mL; in the experiment on Bacillus subtilis it was over 128 µg/mL; with Staphylococcus aureus [6], 64 µg/mL; in experiment [7] it was 128 µg/mL. For the same molecule, the MIC against Staphylococcus aureus [8] and against Enterococcus faecalis was over 128 µg/mL throughout.
